# How the values were obtained:
# [1] = Photostability, percentage remaining undegraded under illumination or in the dark; details: for Photostability 4 hours: percentage remaining undegraded after 4 hours illumination; for Photostability 24 hours: percentage remaining undegraded after 24 hours illumination; for Photostability Dark (24 h): percentage remaining undegraded in the dark
# Bovine cardiac myosin = Bovine cardiac myosin (Bos taurus (Bovine), UniProt Q9BE39); assay: Cardiac muscle myosin II actin-activated ATPase assay (NADH-coupled); type: biochemical; design: key to Ratio CMMII:NMII Ki/EC50: NMII-sel: no Ki value for cardiac myosin II could be determined; the compounds had no detectable inhibitory properties versus the cardiac myosin II; details: for Ratio CMMII:NMII Ki/EC50: cardiac myosin II Ki over nonmuscle myosin II EC50; for Ki: 300 nM cardiac myosin, 10 μM actin, 25° C., read-out: CMMII KI
# Excerpt: (§1) The cardiac muscle myosin II actin-activated ATPase assay is a biochemical assay. Specifically, it is an NADH (nicotinamide adenine dinucleotide)-coupled ATPase assay that relies on NADH fluorescence as a readout. Cardiac myosin is a mechanochemical energy transducer that hydrolyzes ATP to generate force in the presence of its activator, F-actin. The resulting ADP is regenerated to ATP by pyruvate kinase (PK) that transforms one molecule of phosphoenolpyruvate (PEP) to pyruvate in parallel. Subsequently, pyruvate is reduced to lactate by lactate dehydrogenase (LDH) that, in turn, oxidizes one molecule of NADH to NAD. Therefore, the decrease in NADH concentration as a function of time equals the ATP hydrolysis rate. Bovine cardiac myosin is obtained from a commercial source, Cytoskeleton. PK, LDH, ATP, PEP, and NADH are obtained from Sigma. F-actin is prepared in house from Rabbit Muscle Acetone Powder. The assay is run at 25° C. in 384 well black-wall polystyrene microplates with a total volume of 20 μl per well. NADH fluorescence is monitored for 30 minutes with an EnVision Multimode Plate Reader. The slope of the fluorescence response, which is proportional to the reaction rate, is determined by simple linear regression. Final assay conditions are 300 nM cardiac myosin, 10 μM actin, 40 U/ml LDH, 200 U/ml PK, 220 μM NADH, 1 mM PEP, 1 mM ATP in a buffer containing 10 mM 3-(N-morpholino)propanesulfonic acid (pH=7.0), 2 mM MgCl2, 0.15 mM ethylene glycol-bis(p-aminoethyl ether)-N,N,N′,N′-tetraacetic acid, 0.1 mg/mL bovine serum albumin, 0.5% (V/V) dimethyl sulfoxide (DMSO) and 1 mM dithiothreitol. Prior to testing the inhibitory activity of the compounds, a two-fold dilution series starting at 10 mM compound concentration is prepared in DMSO. Subsequently, 100 nl is transferred to each well of the measuring plate containing a mixture of myosin, LDH and PK. The enzymatic reaction is started with the addition of a mixture containing ATP, PEP, NADH and actin. The highest final compound concentration is 50 uM. 20 μM para-aminoblebbistatin in 0.5% DMSO serves as the positive control and 0.5% DMSO alone is the negative control. Reaction rates are determined by using the fluorescence responses of a dilution series of NADH included in all plates and plotted as a function of inhibitor concentration. All measurements are carried out in triplicate. Inhibitory constants are determined by fitting the 16 point dose-response data to a quadratic equation corresponding to a simple one-to-one binding model.
# Rabbit skeletal myosin = assay: Skeletal muscle myosin II actin-activated ATPase assay; type: biochemical; details: 20 nM skeletal muscle myosin II; read-out: SKMMII KI
# Excerpt: as §1
# The skeletal muscle myosin II actin-activated ATPase assay is performed the same as for cardiac muscle myosin II with the following exceptions: Rabbit skeletal myosin is obtained from Cytoskeleton and the final assay conditions contain 20 nM skeletal muscle myosin II.
# Chain of Bovine cardiac myosin (Q9BE39 whole entry): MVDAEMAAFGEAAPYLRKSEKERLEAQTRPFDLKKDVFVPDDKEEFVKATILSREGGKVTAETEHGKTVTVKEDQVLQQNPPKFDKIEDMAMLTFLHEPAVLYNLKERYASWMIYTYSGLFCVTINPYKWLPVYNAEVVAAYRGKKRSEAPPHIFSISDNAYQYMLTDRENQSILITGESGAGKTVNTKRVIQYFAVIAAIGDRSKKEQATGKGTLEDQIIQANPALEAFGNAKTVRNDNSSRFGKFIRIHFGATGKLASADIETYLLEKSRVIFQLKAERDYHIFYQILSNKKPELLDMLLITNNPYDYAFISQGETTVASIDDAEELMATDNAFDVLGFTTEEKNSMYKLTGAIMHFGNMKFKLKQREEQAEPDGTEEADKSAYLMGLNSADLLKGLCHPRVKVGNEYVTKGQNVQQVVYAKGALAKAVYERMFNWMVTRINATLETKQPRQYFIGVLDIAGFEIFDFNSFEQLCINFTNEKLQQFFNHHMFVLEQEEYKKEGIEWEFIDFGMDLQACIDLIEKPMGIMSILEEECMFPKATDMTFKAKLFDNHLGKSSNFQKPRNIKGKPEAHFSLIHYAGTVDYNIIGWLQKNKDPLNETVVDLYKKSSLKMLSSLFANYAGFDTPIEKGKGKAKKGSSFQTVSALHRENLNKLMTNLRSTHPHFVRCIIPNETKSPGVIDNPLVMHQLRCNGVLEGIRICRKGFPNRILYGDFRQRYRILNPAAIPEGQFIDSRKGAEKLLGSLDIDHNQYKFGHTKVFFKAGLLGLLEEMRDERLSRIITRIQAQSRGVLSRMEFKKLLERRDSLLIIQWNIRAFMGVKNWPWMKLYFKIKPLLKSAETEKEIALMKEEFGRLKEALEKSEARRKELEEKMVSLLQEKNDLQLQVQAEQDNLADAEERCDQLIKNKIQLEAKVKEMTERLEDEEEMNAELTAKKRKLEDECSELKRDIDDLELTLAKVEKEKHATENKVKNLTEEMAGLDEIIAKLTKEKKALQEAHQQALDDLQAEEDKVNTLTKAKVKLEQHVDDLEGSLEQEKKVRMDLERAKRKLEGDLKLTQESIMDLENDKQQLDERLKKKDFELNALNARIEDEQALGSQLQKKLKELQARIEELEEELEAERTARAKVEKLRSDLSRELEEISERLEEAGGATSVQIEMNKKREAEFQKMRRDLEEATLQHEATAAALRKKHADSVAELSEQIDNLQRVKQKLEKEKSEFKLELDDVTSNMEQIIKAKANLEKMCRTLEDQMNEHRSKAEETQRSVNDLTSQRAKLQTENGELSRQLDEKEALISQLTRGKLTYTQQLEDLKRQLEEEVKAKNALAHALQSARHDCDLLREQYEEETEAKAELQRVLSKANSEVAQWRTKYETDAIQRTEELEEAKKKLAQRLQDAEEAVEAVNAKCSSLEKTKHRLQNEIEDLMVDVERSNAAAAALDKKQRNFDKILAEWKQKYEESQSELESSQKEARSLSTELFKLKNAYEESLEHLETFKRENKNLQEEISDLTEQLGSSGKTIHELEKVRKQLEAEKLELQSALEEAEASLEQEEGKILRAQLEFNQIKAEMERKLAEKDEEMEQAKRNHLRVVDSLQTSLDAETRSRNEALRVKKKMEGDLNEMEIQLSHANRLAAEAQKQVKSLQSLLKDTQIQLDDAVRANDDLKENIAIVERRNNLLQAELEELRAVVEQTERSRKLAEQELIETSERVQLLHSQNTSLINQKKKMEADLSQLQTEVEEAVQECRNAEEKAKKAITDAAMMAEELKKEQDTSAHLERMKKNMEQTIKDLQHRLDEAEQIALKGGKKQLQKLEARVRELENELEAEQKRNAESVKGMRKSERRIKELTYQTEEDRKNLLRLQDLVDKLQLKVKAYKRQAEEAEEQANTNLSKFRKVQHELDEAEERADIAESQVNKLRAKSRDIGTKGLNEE
# Chain of Bovine cardiac myosin (P85100 whole entry partner): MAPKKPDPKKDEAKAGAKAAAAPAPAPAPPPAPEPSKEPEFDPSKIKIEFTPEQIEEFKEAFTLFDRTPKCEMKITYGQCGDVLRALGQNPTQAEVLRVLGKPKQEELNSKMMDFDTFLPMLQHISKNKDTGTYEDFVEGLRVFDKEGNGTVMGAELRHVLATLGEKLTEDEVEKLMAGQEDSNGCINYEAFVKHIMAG
# Chain of Bovine cardiac myosin (Q3SZE5 whole entry partner): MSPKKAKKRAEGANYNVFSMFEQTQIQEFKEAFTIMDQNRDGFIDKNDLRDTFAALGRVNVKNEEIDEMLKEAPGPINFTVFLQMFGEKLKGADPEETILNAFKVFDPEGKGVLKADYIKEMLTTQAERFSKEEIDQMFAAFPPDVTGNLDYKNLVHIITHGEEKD
Structure (SMILES),Photostability 4 hours [1],Photostability 24 hours [1],Photostability Dark (24 h) [1],Ratio CMMII:NMII Ki/EC50 (Bovine cardiac myosin),Ki (Rabbit skeletal myosin),Ki (Bovine cardiac myosin)
COc1cc(N2CC[C@@]3(O)C(=O)c4cc(C(F)(F)F)ccc4N=C23)ccn1 [BPN-0026533],87.7%,6.4%,91.7%,NMII-sel,60 µM,–
O=C1c2cc(C(F)(F)F)ccc2N=C2N(c3ccc(Cl)cc3)CC[C@@]12O [BPN-0026544],51.1%,10.8%,93.7%,NMII-sel,4.8 µM,–
O=C1c2cc(Cl)ccc2N=C2N(c3ccc4ccsc4c3)CC[C@@]12O [BPN-0026545],89.4%,5.1%,>99%,NMII-sel,12 µM,–
O=C1c2cc(Cl)ccc2N=C2N(c3ccc4sccc4c3)CC[C@@]12O [BPN-0026546],81.2%,12.5%,93.5%,NMII-sel,22 µM,–
Cc1cc2c(s1)N=C1N(c3ccc(C#N)c(C)c3)CC[C@@]1(O)C2=O [BPN-0026576],98.6%,>99%,>99%,3.3,4.6 µM,18 µM
Cc1ccc(N2CC[C@@]3(O)C(=O)c4cc(F)c(C)cc4N=C23)cc1 [BPN-0026579],77.3%,8.5%,93.7%,5.0,0.37 µM,5 µM
COc1ccc(N2CC[C@@]3(O)C(=O)c4cc(F)c(C)cc4N=C23)cc1 [BPN-0026605],69.6%,2.3%,94.2%,15.0,0.29 µM,15 µM
Cc1ccc(N2CC[C@@]3(O)C(=O)c4cc(F)c(C)cc4N=C23)cc1C [BPN-0026607],98.5%,84.7%,98.1%,NMII-sel,5.8 µM,–
N#Cc1ccc(N2CC[C@@]3(O)C(=O)c4cc(C(F)(F)F)ccc4N=C23)cc1 [BPN-0026608],86.7%,<1%,97.5%,11.6,1.7 µM,50 µM
COc1cccc(N2CC[C@@]3(O)C(=O)c4cc(F)c(C)cc4N=C23)c1 [BPN-0026618],92.3%,17.2%,96.6%,3.8,5.9 µM,18 µM
Cc1cc2c(cc1F)C(=O)[C@]1(O)CCN(c3ccc4ccoc4c3)C1=N2 [BPN-0026619],77.4%,<1%,91.0%,22.5,2.5 µM,36 µM
Cc1cccc(N2CC[C@@]3(O)C(=O)c4cc(F)c(C)cc4N=C23)c1 [BPN-0026620],94.1%,27.8%,92.8%,NMII-sel,16 µM,–
COc1cc(N2CC[C@@]3(O)C(=O)c4cc(Cl)ccc4N=C23)ccn1 [BPN-0026621],93.3%,61.4%,93.5%,7.0,3.4 µM,40 µM
Cc1cc2c(s1)N=C1N(c3cccc(Br)c3)CC[C@@]1(O)C2=O [BPN-0026624],90.5%,88.2%,92.2%,14.0,24 µM,210 µM
Cc1cc2c(cc1F)C(=O)[C@]1(O)CCN(c3ccc(C#N)cc3)C1=N2 [BPN-0026638],87.9%,71.9%,91.6%,7.1,0.37 µM,12 µM
Cc1cc2c(s1)N=C1N(c3ccc4ccoc4c3)CC[C@@]1(O)C2=O [BPN-0026639],89.8%,49.5%,>99%,4.2,1.1 µM,14 µM
O=C1c2cc(Cl)ccc2N=C2N(c3ccc(Cl)cc3)CC[C@@]12O [BPN-0026640],71.1%,17.8%,96.8%,4.0,0.53 µM,8 µM
O=C1c2cc(Cl)c(Cl)cc2N=C2N(c3ccccc3)CC[C@@]12O [BPN-0026643],64.0%,<1%,85.1%,3.5,1.9 µM,17 µM
Cc1cc2c(cc1C(F)(F)F)N=C1N(c3ccccc3)CC[C@@]1(O)C2=O [BPN-0026648],94.3%,84.3%,97.7%,11.9,4.5 µM,56 µM
Cc1ccc2c(c1)C(=O)[C@]1(O)CCN(c3ccc4ccsc4c3)C1=N2 [BPN-0026650],80.5%,5.5%,>99%,NMII-sel,4.3 µM,–
Cc1ccc2c(c1)C(=O)[C@]1(O)CCN(c3ccc4sccc4c3)C1=N2 [BPN-0026651],73.0%,5.8%,97.5%,NMII-sel,3.9 µM,–
Cc1cc2c(cc1Cl)C(=O)[C@]1(O)CCN(c3ccccc3)C1=N2 [BPN-0026659],72.1%,17.9%,91.1%,3.5,0.93 µM,9 µM
Cc1cc2c(cc1C)C(=O)[C@]1(O)CCN(c3cccc(Br)c3)C1=N2 [BPN-0026660],87.4%,7.6%,93.8%,NMII-sel,33 µM,–
Cc1cc2c(cc1C)C(=O)[C@]1(O)CCN(c3ccc(C#N)c(C)c3)C1=N2 [BPN-0026661],95.5%,65.4%,98.2%,22.1,2.2 µM,53 µM
Cc1cc2c(cc1C)C(=O)[C@]1(O)CCN(c3ccc(Cl)cc3)C1=N2 [BPN-0026662],85.4%,7.5%,>99%,5.5,0.19 µM,6 µM
Cc1ccc(N2CC[C@@]3(O)C(=O)c4cc(C)c(C)cc4N=C23)cc1 [BPN-0026663],40.7%,2.0%,97.3%,3.5,0.12 µM,2.8 µM
